US20260201008A1, “SECRETIN-DERIVED GLP1R SELECTIVE AGONISTS” (GUBRA A/S, priority 2023, published 2026)
Like-named read-outs stand apart in the source and are kept apart here. Numbered stars: 1 amine (or outer) side, 2 acyl side, 3 side chain; on linkers, the order of the positions; unused ones are H or OH. Square brackets hold non-standard residues; d marks the D form. Side chains are listed from the residue outwards. Peptide text beside a SMILES is read from it. * marks the point of attachment. C20 diacid = O=C(O)CCCCCCCCCCCCCCCCCCC(=O)*; γGlu = O=C(O)[C@H](CCC(=O)[*:2])N[*:1]; AEEA = NCCOCCOCC(=O)O; Aib = CC(C)(N)C(=O)O

Legend:
[1] = Turbidity of crude library peptides (absorbance at 600 nm); format: physicochemical; conditions: Physical stability of peptides
Method: (§1) Peptides were dissolved in buffers (50 mM sodium acetate at pH 4.0, or 50 mM sodium phosphate at pH 7.0) to 267 μM and incubated for 1-2 hours at room temperature. The samples were then divided into two replicates of 80 μl in a black 384 well plate (μ-clear, Greiner Bio-One) and mixed with Thioflavin T (ThT) to a final concentration of 4 μM. The plate was centrifuged for 2 min at 2000 rpm to remove air bubbles, sealed, and placed in a plate reader (CLARIOstar, BMG). Firstly, turbidity of the samples was measured as the absorbance at 600 nm. Secondly, the plate reader temperature was set to 40° C. and the fluorescence was measured every 10 min for 72 hours by exciting the ThT at 450 nm and measuring the emission at 480 nm. Samples were stressed by shaking the plate at 700 rpm (linear) for five minutes before every measurement, and fibril formation was determined as the average emission for each sample.

[2] = Fibril formation of crude library peptides (Thioflavin T); format: physicochemical; parameters: key: average ThT fluorescence emission at 480 nm (ex 450 nm), raw units; conditions: Physical stability of peptides
Method: as §1

GLP1R = GLP1R (Homo sapiens, UniProt P43220); experiment: hGLP1R potency, cAMP accumulation in CHO-K1 cells stably overexpressing hGLP1R; format: cell-based; parameters: host or cells: CHO-K1; conditions: for EC50: cAMP accumulation; for SCTR EC50/GLP1R EC50 ratio: cAMP accumulation in CHO-K1 cells; for Selectivity: SCTR EC50/GLP1R EC50 ratio
GLP1R, sequence (P43220 24-463): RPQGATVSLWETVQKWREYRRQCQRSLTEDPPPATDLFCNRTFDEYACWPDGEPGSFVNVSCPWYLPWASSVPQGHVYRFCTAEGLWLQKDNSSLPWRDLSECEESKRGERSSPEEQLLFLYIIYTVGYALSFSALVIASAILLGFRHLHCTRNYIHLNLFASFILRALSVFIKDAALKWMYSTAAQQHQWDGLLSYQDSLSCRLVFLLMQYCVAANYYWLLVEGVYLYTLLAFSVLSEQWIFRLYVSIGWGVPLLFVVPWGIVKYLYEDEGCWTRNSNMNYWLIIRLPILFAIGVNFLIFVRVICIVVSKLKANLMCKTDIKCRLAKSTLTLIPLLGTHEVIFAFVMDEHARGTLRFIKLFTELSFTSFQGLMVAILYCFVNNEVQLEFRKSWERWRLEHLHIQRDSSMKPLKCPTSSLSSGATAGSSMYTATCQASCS
Summary of the method: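 In the presence of 0.5 mM IBMX, compounds stimulated the cells for 30 minutes at room temperature. Accumulated cAMP was then detected by TR-FRET, with EC50 values fitted by variable-slope nonlinear regression.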

SCTR = SCTR (Homo sapiens, UniProt P47872); experiment: hSCTR potency, cAMP accumulation in CHO-K1 cells stably overexpressing hSCTR; format: cell-based; parameters: alternatively Euroscreen ES-712-AF; FAST-0161L; host or cells: CHO-K1; conditions: cAMP accumulation
SCTR, sequence (P47872 23-440): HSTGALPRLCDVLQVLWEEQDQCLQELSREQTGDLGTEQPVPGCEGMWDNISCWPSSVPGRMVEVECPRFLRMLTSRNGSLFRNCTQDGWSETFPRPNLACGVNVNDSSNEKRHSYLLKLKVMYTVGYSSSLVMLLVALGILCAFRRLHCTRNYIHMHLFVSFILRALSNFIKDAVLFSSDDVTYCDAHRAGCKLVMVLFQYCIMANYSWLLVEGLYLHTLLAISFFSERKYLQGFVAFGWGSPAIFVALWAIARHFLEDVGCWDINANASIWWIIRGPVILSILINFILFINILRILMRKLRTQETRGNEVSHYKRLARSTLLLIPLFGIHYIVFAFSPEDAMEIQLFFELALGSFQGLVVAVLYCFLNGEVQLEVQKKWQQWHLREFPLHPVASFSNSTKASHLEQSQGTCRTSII
Summary of the method: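 In this Gs cAMP assay, stably transfected CHO-K1 hSCTR cells were stimulated at room temperature for 30 min in IBMX-containing buffer. Time-resolved FRET gave the signal. Replicates were increased when the top concentration changed or EC50 values differed 5-fold.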

[3] = CHO-K1 cells overexpressing hGLP1R, read-out: pEC50 hGLPR1 (converted)
[4] = CHO-K1 cells overexpressing hSCTR, read-out: pEC50 hSCTR (converted)

For `CC[C@H](C)[C@H](NC(=O)[C@H](Cc1ccccc1)NC(=O)[C@H](CCCNC(=N)N)NC(=O)[C@H](CCC(N)=O)NC(=O)[C@H](CC(C)C)NC(=O)[C@H](C)NC(=O)[C@H](C)NC(=O)CNC(=O)[C@H](CCC(=O)O)NC(=O)[C@H](CC(C)C)NC(=O)[C@H](CC(C)C)NC(=O)[C@H](CCC(=O)O)NC(=O)[C@H](CO)NC(=O)[C@H](Cc1c[nH]c2ccccc12)NC(=O)[C@H](CC(=O)O)NC(=O)[C@H](CO)NC(=O)[C@@H](NC(=O)[C@H](Cc1ccccc1)NC(=O)[C@@H](NC(=O)CNC(=O)[C@H](CCC(=O)O)NC(=O)C(C)(C)NC(=O)[C@@H](N)Cc1c[nH]cn1)[C@@H](C)O)[C@@H](C)O)C(=O)N[C@@H](CCC(N)=O)C(=O)N[C@@H](Cc1c[nH]c2ccccc12)C(=O)N[C@@H](CC(C)C)C(=O)N[C@H](C(N)=O)C(C)C` [compound 193] (H-H[Aib]EGTFTSDWSELLEGAALQRFIQWLV-NH2), the “Turbidity (pH 7)” value [1] was 0.13, the Fibril formation [2] was 26948 and the EC50 (GLP1R; CHO-K1 cells stably overexpressing hGLP1R, read-out: hGLP1R potency (pEC50) (converted)) was 0.0251 nM. The “SCTR EC50/GLP1R EC50 ratio” value (GLP1R; selectivity ratio, hSCTR vs hGLP1R) was 558 and the EC50 (SCTR; CHO-K1 cells stably overexpressing hSCTR, read-out: hSCTR potency (pEC50) (converted)) was 12.6 nM.
For `CC(C)C[C@H](NC(=O)[C@H](Cc1ccccc1)NC(=O)[C@H](CCCNC(=N)N)NC(=O)[C@H](CCC(N)=O)NC(=O)[C@H](C)NC(=O)[C@H](C)NC(=O)[C@H](C)NC(=O)[C@H](CCC(=O)O)NC(=O)[C@H](CCC(=O)O)NC(=O)[C@H](CCCCNC(=O)COCCOCCNC(=O)COCCOCCNC(=O)CC[C@H](NC(=O)CCCCCCCCCCCCCCCCCCC(=O)O)C(=O)O)NC(=O)[C@H](CC(C)C)NC(=O)[C@@H](NC(=O)[C@H](CO)NC(=O)[C@@H](NC(=O)[C@H](CC(=O)O)NC(=O)[C@H](CO)NC(=O)[C@@H](NC(=O)[C@H](Cc1ccccc1)NC(=O)[C@@H](NC(=O)CNC(=O)[C@H](CCC(=O)O)NC(=O)C(C)(C)NC(=O)[C@@H](N)Cc1c[nH]cn1)[C@@H](C)O)[C@@H](C)O)C(C)C)C(C)C)C(=O)N[C@@H](CCC(=O)O)C(=O)N[C@@H](Cc1c[nH]cn1)C(=O)N[C@@H](CC(C)C)C(=O)N[C@H](C(N)=O)C(C)C` [compound 28] (H-H[Aib]EGTFTSDVSVLK([AEEA-AEEA-γGlu-C20 diacid])EEAAAQRFLEHLV-NH2), the “Turbidity (pH 7)” value [1] was 0.09, the Fibril formation [2] was 7910 and the Selectivity (GLP1R) was 55501. For the same compound, the EC50 (GLP1R; [3]) was 0.02 nM and the EC50 (SCTR; [4]) was 1260 nM.
In the case of `CC(C)C[C@H](NC(=O)[C@H](Cc1ccccc1)NC(=O)[C@H](CCCNC(=N)N)NC(=O)[C@H](CCC(N)=O)NC(=O)[C@@H](NC(=O)[C@H](C)NC(=O)[C@H](C)NC(=O)[C@H](CCC(=O)O)NC(=O)[C@H](CCC(=O)O)NC(=O)[C@H](CCCCNC(=O)COCCOCCNC(=O)COCCOCCNC(=O)CC[C@H](NC(=O)CCCCCCCCCCCCCCCCCCC(=O)O)C(=O)O)NC(=O)[C@H](CC(C)C)NC(=O)[C@H](CCCNC(=N)N)NC(=O)[C@H](CO)NC(=O)[C@@H](NC(=O)[C@H](CC(=O)O)NC(=O)[C@H](CO)NC(=O)[C@@H](NC(=O)[C@H](Cc1ccccc1)NC(=O)[C@@H](NC(=O)CNC(=O)[C@H](CCC(=O)O)NC(=O)C(C)(C)NC(=O)[C@@H](N)Cc1c[nH]cn1)[C@@H](C)O)[C@@H](C)O)C(C)C)[C@@H](C)O)C(=O)N[C@@H](CCC(=O)O)C(=O)N[C@@H](Cc1c[nH]cn1)C(=O)N[C@@H](CC(C)C)C(=O)N[C@H](C(N)=O)C(C)C` [compound 65] (H-H[Aib]EGTFTSDVSRLK([AEEA-AEEA-γGlu-C20 diacid])EEAATQRFLEHLV-NH2), the “Turbidity (pH 7)” value [1] is reported as 0.09, the Fibril formation [2] is reported as 9674 and the Selectivity (GLP1R) is reported as 6482. For the same compound, the EC50 (GLP1R; [3]) was 0.00316 nM and the EC50 (SCTR; [4]) was 25.1 nM.
In the case of `CC(C)C[C@H](NC(=O)[C@H](CCC(=O)O)NC(=O)[C@H](CCCCNC(=O)COCCOCCNC(=O)COCCOCCNC(=O)CC[C@H](NC(=O)CCCCCCCCCCCCCCCCCCC(=O)O)C(=O)O)NC(=O)[C@H](CC(C)C)NC(=O)[C@H](CCC(=O)O)NC(=O)[C@H](CO)NC(=O)[C@@H](NC(=O)[C@H](CC(=O)O)NC(=O)[C@H](CO)NC(=O)[C@@H](NC(=O)[C@H](Cc1ccccc1)NC(=O)[C@@H](NC(=O)CNC(=O)[C@H](CCC(=O)O)NC(=O)C(C)(C)NC(=O)[C@@H](N)Cc1c[nH]cn1)[C@@H](C)O)[C@@H](C)O)C(C)C)C(=O)N[C@@H](C)C(=O)N[C@@H](C)C(=O)N[C@@H](CCC(=O)O)C(=O)N[C@@H](CCC(N)=O)C(=O)N[C@@H](CCCNC(=N)N)C(=O)N[C@@H](Cc1ccccc1)C(=O)N[C@@H](CC(C)C)C(=O)N[C@@H](CCC(=O)O)C(=O)N[C@@H](Cc1c[nH]cn1)C(=O)N[C@@H](CC(C)C)C(=O)N[C@H](C(N)=O)C(C)C` [compound 36] (H-H[Aib]EGTFTSDVSELK([AEEA-AEEA-γGlu-C20 diacid])ELAAEQRFLEHLV-NH2), the “Turbidity (pH 7)” value [1] is reported as 0.09, the Fibril formation [2] is reported as 9625 and the Selectivity (GLP1R) is reported as 11143. For the same compound, the EC50 (GLP1R; [3]) was 0.0316 nM and the EC50 (SCTR; [4]) was 316 nM.
With `CC(C)C[C@H](NC(=O)[C@H](Cc1ccccc1)NC(=O)[C@H](CCCNC(=N)N)NC(=O)[C@H](CCC(N)=O)NC(=O)[C@H](CCC(=O)O)NC(=O)[C@H](C)NC(=O)[C@H](C)NC(=O)[C@@H](NC(=O)[C@H](CCC(=O)O)NC(=O)[C@H](CCCCNC(=O)COCCOCCNC(=O)COCCOCCNC(=O)CC[C@H](NC(=O)CCCCCCCCCCCCCCCCCCC(=O)O)C(=O)O)NC(=O)[C@H](CC(C)C)NC(=O)[C@H](CCCNC(=N)N)NC(=O)[C@H](CO)NC(=O)[C@@H](NC(=O)[C@H](CC(=O)O)NC(=O)[C@H](CO)NC(=O)[C@@H](NC(=O)[C@H](Cc1ccccc1)NC(=O)[C@@H](NC(=O)CNC(=O)[C@H](CCC(=O)O)NC(=O)C(C)(C)NC(=O)[C@@H](N)Cc1c[nH]cn1)[C@@H](C)O)[C@@H](C)O)C(C)C)[C@@H](C)O)C(=O)N[C@@H](CCC(=O)O)C(=O)N[C@@H](Cc1c[nH]cn1)C(=O)N[C@@H](CC(C)C)C(=O)N[C@H](C(N)=O)C(C)C` [compound 34] (H-H[Aib]EGTFTSDVSRLK([AEEA-AEEA-γGlu-C20 diacid])ETAAEQRFLEHLV-NH2) the “Turbidity (pH 7)” value [1] was 0.08, the Fibril formation [2] was 11365 and the Selectivity (GLP1R) was 18582. For the same compound, the EC50 (GLP1R; [3]) was 0.0251 nM and the EC50 (SCTR; [4]) was 398 nM.
In the case of `CC(C)C[C@H](NC(=O)[C@H](Cc1ccccc1)NC(=O)[C@H](CCCNC(=N)N)NC(=O)[C@H](CCC(N)=O)NC(=O)[C@H](CCC(=O)O)NC(=O)[C@H](C)NC(=O)[C@H](C)NC(=O)[C@H](CCC(=O)O)NC(=O)[C@H](CCC(=O)O)NC(=O)[C@H](CCCCNC(=O)COCCOCCNC(=O)COCCOCCNC(=O)CC[C@H](NC(=O)CCCCCCCCCCCCCCCCCCC(=O)O)C(=O)O)NC(=O)[C@H](CC(C)C)NC(=O)[C@H](CCC(=O)O)NC(=O)[C@H](CO)NC(=O)[C@@H](NC(=O)[C@H](CC(=O)O)NC(=O)[C@H](CO)NC(=O)[C@@H](NC(=O)[C@H](Cc1ccccc1)NC(=O)[C@@H](NC(=O)CNC(=O)[C@H](CCC(=O)O)NC(=O)C(C)(C)NC(=O)[C@@H](N)Cc1c[nH]cn1)[C@@H](C)O)[C@@H](C)O)C(C)C)C(=O)N[C@@H](CCC(=O)O)C(=O)N[C@@H](Cc1c[nH]cn1)C(=O)N[C@@H](CC(C)C)C(=O)N[C@H](C(N)=O)C(C)C` [compound 51] (H-H[Aib]EGTFTSDVSELK([AEEA-AEEA-γGlu-C20 diacid])EEAAEQRFLEHLV-NH2), the “Turbidity (pH 7)” value [1] is reported as 0.09, the Fibril formation [2] is reported as 8475 and the Selectivity (GLP1R) is reported as 63009. The EC50 (GLP1R; [3]) was 0.0316 nM and the EC50 (SCTR; [4]) was 2000 nM.
In the case of `CC(C)C[C@H](NC(=O)[C@H](Cc1ccccc1)NC(=O)[C@H](CCCNC(=N)N)NC(=O)[C@H](CCC(N)=O)NC(=O)C(C)(C)NC(=O)[C@H](C)NC(=O)[C@H](C)NC(=O)[C@@H](NC(=O)[C@H](CCC(=O)O)NC(=O)[C@H](CCCCNC(=O)COCCOCCNC(=O)COCCOCCNC(=O)CC[C@H](NC(=O)CCCCCCCCCCCCCCCCCCC(=O)O)C(=O)O)NC(=O)[C@H](CC(C)C)NC(=O)[C@@H](NC(=O)[C@H](CO)NC(=O)[C@@H](NC(=O)[C@H](CC(=O)O)NC(=O)[C@H](CO)NC(=O)[C@@H](NC(=O)[C@H](Cc1ccccc1)NC(=O)[C@@H](NC(=O)CNC(=O)[C@H](CCC(=O)O)NC(=O)C(C)(C)NC(=O)[C@@H](N)Cc1c[nH]cn1)[C@@H](C)O)[C@@H](C)O)C(C)C)C(C)C)[C@@H](C)O)C(=O)N[C@@H](CCC(=O)O)C(=O)N[C@@H](Cc1c[nH]cn1)C(=O)N[C@@H](CC(C)C)C(=O)N[C@H](C(N)=O)C(C)C` [compound 101] (H-H[Aib]EGTFTSDVSVLK([AEEA-AEEA-γGlu-C20 diacid])ETAA[Aib]QRFLEHLV-NH2), the “Turbidity (pH 7)” value [1] is reported as 0.08, the Fibril formation [2] is reported as 8172 and the EC50 (GLP1R; CHO-K1 cells overexpressing hGLP1R, read-out: hGLP1R pEC50 (converted)) is reported as 0.2 nM. The “SCTR EC50/GLP1R EC50 ratio” value (GLP1R; selectivity for hGLP1R over hSCTR) was 5030 and the EC50 (SCTR; CHO-K1 cells overexpressing hSCTR, read-out: hSCTR pEC50 (converted)) was 1000 nM.
